Molecular target: T1, ATM protein immunoprecipitated from HeLa cell nuclear extract (Homo sapiens, UniProt Q13315)
T1 construct: ATM protein was immunoprecipitated from HeLa cell nuclear extract; endogenous in cells; host or cells: HeLa cell nuclear extract (immunoprecipitated with rabbit polyclonal anti-ATM antiserum)
Assay: In vitro ATM inhibition assay (phosphorylation of GSTp53N66 on serine 15, chemiluminescent detection); further: tested normally from 100 µM down to 0.1 nM
Type: biochemical
Settings: read-out: IC50 values (the concentration at which 50% of the enzyme activity is inhibited), ATM inhibition
Method: In order to assess the inhibitory action of the compounds against ATM in vitro, the following assay was used to determine IC50 values. ATM protein was immunoprecipitated from HeLa cell nuclear extract using rabbit polyclonal anti-sera raised to the C-terminal ˜500 amino-acid residues of the human ATM protein. […] 10 μl of immunoprecipitated ATM in Buffer C (50 mM Hepes, pH 7.4, 6 mM MgCl2, 150 mM NaCl, 0.1 mM sodium orthovanadate, 4 mM MnCl2, 0.1 mM dithiothreitol, 10% glycerol) was added to 32.5 μl of buffer C containing 1 μg of the ATM substrate GSTp53N66 in a V-bottomed 96 well polypropylene plate. The GSTp53N66 substrate is the amino terminal 66 amino acid residues of human wild type p53 fused to glutathione S-transferase. […] Varying concentrations of inhibitor were then added. […] After 10 minutes of incubation at 37° C., the reactions were initiated by the addition of 5 μl of 500 μM Na-ATP. After 1 hour with shaking at 37° C., 150 μl of phosphate buffered saline (PBS) was added to the reaction and the plate centrifuged at 1500 rpm for 10 minutes. 5 μl of the reaction was then transferred to a 96 well opaque white plate containing 45 μl of PBS to allow the GSTp53N66 substrate to bind to the plate wells. The plate was covered and incubated at room temperature for 1 hour with shaking before discarding the contents. The plate wells were washed twice by the addition of PBS prior to the addition of 3% (w/v) bovine serum albumin (BSA) in PBS. The plate was incubated at room temperature for 1 hour with shaking before discarding the contents and washing twice with PBS. To the wells, 50 μl of a 1:10,000 dilution of primary phosphoserine-15 antibody (Cell Signaling Technology, #9284L) in 3% BSA/PBS was added to detect the phosphorylation event on the serine 15 residue of p53 elicited by the ATM kinase. […] The wells were then washed four times with PBS before the addition of chemiluminescence reagent (NEN Renaissance, NEL105). The plate was then shaken briefly, covered with a transparent plate seal and transferred to a TopCount NXT for chemiluminescent counting. Counts per second, following a one second counting time, were recorded for each reaction.
The enzyme activity for each compound is then calculated using the following equation:
[formula] Results In vitro ATM assays
Compounds were assayed for ATM inhibition activity using the method described above. […] These are determined over a range of different concentrations, normally from 100 μM down to 0.1 nM. Such IC50 values are used as comparative values to identify increased compound potencies.

T1 sequence (Q13315 whole entry): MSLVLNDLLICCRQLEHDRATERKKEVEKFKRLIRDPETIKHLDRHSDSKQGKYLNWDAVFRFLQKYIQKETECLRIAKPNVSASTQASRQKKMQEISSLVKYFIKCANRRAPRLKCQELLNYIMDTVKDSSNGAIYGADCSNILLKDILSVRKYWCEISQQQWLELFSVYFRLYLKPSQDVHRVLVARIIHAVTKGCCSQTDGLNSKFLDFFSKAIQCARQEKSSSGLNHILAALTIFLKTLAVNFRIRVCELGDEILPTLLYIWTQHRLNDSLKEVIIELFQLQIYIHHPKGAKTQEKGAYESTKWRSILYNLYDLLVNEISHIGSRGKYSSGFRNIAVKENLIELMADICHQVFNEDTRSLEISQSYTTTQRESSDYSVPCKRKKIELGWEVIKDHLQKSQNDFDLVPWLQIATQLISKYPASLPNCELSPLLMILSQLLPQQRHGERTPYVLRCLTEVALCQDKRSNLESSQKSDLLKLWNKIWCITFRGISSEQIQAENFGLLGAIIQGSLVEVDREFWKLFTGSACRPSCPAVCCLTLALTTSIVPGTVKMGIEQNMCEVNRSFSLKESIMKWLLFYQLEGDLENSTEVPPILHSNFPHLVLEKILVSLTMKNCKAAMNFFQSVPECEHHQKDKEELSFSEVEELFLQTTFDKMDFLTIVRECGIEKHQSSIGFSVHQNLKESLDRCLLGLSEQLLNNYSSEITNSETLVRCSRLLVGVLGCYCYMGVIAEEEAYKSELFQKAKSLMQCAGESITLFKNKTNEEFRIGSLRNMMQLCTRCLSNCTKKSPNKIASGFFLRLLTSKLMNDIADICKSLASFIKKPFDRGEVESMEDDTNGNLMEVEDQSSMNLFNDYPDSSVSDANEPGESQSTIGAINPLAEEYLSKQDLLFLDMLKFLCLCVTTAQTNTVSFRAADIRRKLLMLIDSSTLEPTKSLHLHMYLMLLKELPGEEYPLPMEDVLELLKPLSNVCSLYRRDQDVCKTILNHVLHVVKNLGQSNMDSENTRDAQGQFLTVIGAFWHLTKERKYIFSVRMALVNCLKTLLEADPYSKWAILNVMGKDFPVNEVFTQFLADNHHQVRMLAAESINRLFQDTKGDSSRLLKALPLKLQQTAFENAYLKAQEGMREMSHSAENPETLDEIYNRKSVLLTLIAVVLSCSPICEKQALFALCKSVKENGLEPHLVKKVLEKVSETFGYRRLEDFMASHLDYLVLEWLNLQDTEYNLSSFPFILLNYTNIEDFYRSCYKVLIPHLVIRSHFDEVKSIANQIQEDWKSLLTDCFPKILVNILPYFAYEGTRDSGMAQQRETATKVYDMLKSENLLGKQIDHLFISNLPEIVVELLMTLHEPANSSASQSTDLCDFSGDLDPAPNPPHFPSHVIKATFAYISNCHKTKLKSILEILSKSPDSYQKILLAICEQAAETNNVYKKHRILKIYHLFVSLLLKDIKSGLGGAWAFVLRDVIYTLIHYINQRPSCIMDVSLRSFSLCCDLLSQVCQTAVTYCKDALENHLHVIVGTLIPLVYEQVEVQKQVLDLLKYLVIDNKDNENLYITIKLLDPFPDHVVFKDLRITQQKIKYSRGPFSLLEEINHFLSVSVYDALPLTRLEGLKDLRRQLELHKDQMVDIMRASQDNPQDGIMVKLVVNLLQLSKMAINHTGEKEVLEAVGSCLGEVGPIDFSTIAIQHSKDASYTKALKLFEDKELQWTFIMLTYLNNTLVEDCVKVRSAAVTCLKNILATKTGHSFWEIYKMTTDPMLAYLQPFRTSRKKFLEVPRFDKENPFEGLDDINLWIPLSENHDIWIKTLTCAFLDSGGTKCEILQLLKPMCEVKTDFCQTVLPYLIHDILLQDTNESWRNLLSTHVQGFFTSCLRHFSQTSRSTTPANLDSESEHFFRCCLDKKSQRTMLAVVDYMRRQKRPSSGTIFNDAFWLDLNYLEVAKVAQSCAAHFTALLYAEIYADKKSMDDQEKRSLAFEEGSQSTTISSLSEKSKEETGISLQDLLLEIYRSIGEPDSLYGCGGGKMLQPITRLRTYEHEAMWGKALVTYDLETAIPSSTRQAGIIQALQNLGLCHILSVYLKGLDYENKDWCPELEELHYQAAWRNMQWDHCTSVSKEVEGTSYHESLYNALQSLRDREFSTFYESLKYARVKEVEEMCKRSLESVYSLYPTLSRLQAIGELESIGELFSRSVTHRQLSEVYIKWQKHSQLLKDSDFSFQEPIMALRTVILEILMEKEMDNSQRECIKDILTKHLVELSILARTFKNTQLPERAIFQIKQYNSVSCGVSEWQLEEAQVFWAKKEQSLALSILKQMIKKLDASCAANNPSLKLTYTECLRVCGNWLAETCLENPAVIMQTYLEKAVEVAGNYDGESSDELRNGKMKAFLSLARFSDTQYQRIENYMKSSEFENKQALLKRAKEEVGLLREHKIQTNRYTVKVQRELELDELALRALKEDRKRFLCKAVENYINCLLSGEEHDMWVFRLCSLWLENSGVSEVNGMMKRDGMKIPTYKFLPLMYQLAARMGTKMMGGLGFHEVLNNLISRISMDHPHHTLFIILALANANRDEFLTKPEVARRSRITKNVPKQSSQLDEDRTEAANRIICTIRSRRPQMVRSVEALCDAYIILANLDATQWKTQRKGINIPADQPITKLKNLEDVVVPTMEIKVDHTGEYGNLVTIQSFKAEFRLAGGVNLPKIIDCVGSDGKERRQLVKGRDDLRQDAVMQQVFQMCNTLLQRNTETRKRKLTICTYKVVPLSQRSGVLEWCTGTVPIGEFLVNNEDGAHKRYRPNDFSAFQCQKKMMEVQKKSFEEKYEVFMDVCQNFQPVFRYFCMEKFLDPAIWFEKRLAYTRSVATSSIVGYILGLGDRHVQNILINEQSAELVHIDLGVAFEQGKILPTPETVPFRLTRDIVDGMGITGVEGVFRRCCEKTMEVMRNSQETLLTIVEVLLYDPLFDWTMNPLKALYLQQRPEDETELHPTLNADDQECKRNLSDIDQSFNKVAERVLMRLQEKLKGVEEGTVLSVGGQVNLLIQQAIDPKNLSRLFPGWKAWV

| IC50 [nM] | Compound |
| --- | --- |
| < 200 | O=c1cc(-c2cccc3c2Sc2ccccc2N3CCCNCC2CCCCC2)oc(N2CCOCC2)c1 [Compound 253] |
| < 200 | O=c1cc(-c2cccc3c2Sc2ccccc2N3CCCNC2CCCC2)oc(N2CCOCC2)c1 [Compound 254] |
| < 200 | CC1CN(CCCN2c3ccccc3Sc3c(-c4cc(=O)cc(N5CCOCC5)o4)cccc32)CC(C)O1 (stereo not shown) [Compound 257] |
| < 200 | O=c1cc(-c2cccc3c2Sc2ccccc2N3CCCN2CCCCCC2)oc(N2CCOCC2)c1 [Compound 260] |
| < 200 | O=c1cc(-c2cccc3c2Sc2ccccc2N3CCCNN2CCCCCC2)oc(N2CCOCC2)c1 [Compound 261] |
| < 200 | O=c1cc(-c2cccc3c2Sc2ccccc2N3CCCNCCN2CCCC2)oc(N2CCOCC2)c1 [Compound 264] |
| < 200 | O=c1cc(-c2cccc3c2Sc2ccccc2N3CCCNCc2ccccn2)oc(N2CCOCC2)c1 [Compound 266] |
| < 200 | O=c1cc(-c2cccc3c2Sc2ccccc2N3CCCNCc2cccnc2)oc(N2CCOCC2)c1 [Compound 267] |
| < 200 | CN1CCN(CCCNCCCN2c3ccccc3Sc3c(-c4cc(=O)cc(N5CCOCC5)o4)cccc32)CC1 [Compound 270] |
| < 200 | O=c1cc(-c2cccc3c2Sc2ccccc2N3CCCNCCc2cnc[nH]2)oc(N2CCOCC2)c1 [Compound 271] |
| < 200 | O=c1cc(-c2cccc3c2Sc2ccccc2N3CCCNCCN2CCOCC2)oc(N2CCOCC2)c1 [Compound 272] |
| < 200 | O=c1cc(-c2cccc3c2Sc2ccccc2N3CCCNCCN2CCN(Cc3ccccc3)CC2)oc(N2CCOCC2)c1 [Compound 274] |
| < 200 | CCN(CC)CCCNCCCN1c2ccccc2Sc2c(-c3cc(=O)cc(N4CCOCC4)o3)cccc21 [Compound 277] |
| < 200 | CN(C)CCN(CCCN1c2ccccc2Sc2c(-c3cc(=O)cc(N4CCOCC4)o3)cccc21)Cc1ccccc1 [Compound 281] |
| < 200 | CN(C)CCNCCCN1c2ccccc2Sc2c(-c3cc(=O)cc(N4CCOCC4)o3)cccc21 [Compound 282] |
| < 200 | CN(C)CCCNCCCN1c2ccccc2Sc2c(-c3cc(=O)cc(N4CCOCC4)o3)cccc21 [Compound 284] |
| < 200 | COCCCNCCCN1c2ccccc2Sc2c(-c3cc(=O)cc(N4CCOCC4)o3)cccc21 [Compound 285] |
| < 200 | CCOCCCNCCCN1c2ccccc2Sc2c(-c3cc(=O)cc(N4CCOCC4)o3)cccc21 [Compound 286] |
| < 200 | O=C1NCCN1CCNCCCN1c2ccccc2Sc2c(-c3cc(=O)cc(N4CCOCC4)o3)cccc21 [Compound 287] |
| < 200 | CN1CCN(CCCN2c3ccccc3Sc3c(-c4cc(=O)cc(N5CCOCC5)o4)cccc32)CC1 [Compound 288] |

| IC50 [nM] | Compound |
| --- | --- |
| < 200 | Cc1ccccc1N1CCN(CCCN2c3ccccc3Sc3c(-c4cc(=O)cc(N5CCOCC5)o4)cccc32)CC1 [Compound 289] |
| < 200 | O=c1cc(-c2cccc3c2Sc2ccccc2N3CCCN2CCN(c3ccccn3)CC2)oc(N2CCOCC2)c1 [Compound 290] |
| < 200 | O=c1cc(-c2cccc3c2Sc2ccccc2N3CCCN2CCN(c3ccncc3)CC2)oc(N2CCOCC2)c1 [Compound 291] |
| < 200 | O=c1cc(-c2cccc3c2Sc2ccccc2N3CCCN2CCN(CCOCCO)CC2)oc(N2CCOCC2)c1 [Compound 292] |
| < 200 | Cc1ccc(N2CCN(CCCN3c4ccccc4Sc4c(-c5cc(=O)cc(N6CCOCC6)o5)cccc43)CC2)c(C)c1 [Compound 294] |
| < 200 | O=c1cc(-c2cccc3c2Sc2ccccc2N3CCCN2CCN(c3ncccn3)CC2)oc(N2CCOCC2)c1 [Compound 295] |
| < 200 | CC(C)NC(=O)CN1CCN(CCCN2c3ccccc3Sc3c(-c4cc(=O)cc(N5CCOCC5)o4)cccc32)CC1 [Compound 296] |
| < 200 | O=c1cc(-c2cccc3c2Sc2ccccc2N3CCCN2CCN(c3ccccc3F)CC2)oc(N2CCOCC2)c1 [Compound 297] |
| < 200 | CC(C)(C)OC(=O)N1CCN(CCCN2c3ccccc3Sc3c(-c4cc(=O)cc(N5CCOCC5)o4)cccc32)CC1 [Compound 298] |
| < 200 | CCOC(=O)CN1CCN(CCCN2c3ccccc3Sc3c(-c4cc(=O)cc(N5CCOCC5)o4)cccc32)CC1=O [Compound 299] |
| < 200 | O=c1cc(-c2cccc3c2Sc2ccccc2N3CCCN2CCN(CCO)CC2)oc(N2CCOCC2)c1 [Compound 300] |
| < 200 | O=c1cc(-c2cccc3c2Sc2ccccc2N3CCCN2CCNCC2)oc(N2CCOCC2)c1 [Compound 303] |
| < 200 | CN(C)CCN1CCN(CCCN2c3ccccc3Sc3c(-c4cc(=O)cc(N5CCOCC5)o4)cccc32)CC1 [Compound 304] |
| < 200 | O=c1cc(-c2cccc3c2Sc2ccccc2N3CCCNC2CCC(O)CC2)oc(N2CCOCC2)c1 (stereo not shown) [Compound 306] |
| < 200 | CN1CCC(NCCCN2c3ccccc3Sc3c(-c4cc(=O)cc(N5CCOCC5)o4)cccc32)CC1 [Compound 307] |
| < 200 | CC(C)(C)OC(=O)N1CCC(NCCCN2c3ccccc3Sc3c(-c4cc(=O)cc(N5CCOCC5)o4)cccc32)CC1 [Compound 311] |
| < 200 | CCOC(=O)C1CCN(CCCN2c3ccccc3Sc3c(-c4cc(=O)cc(N5CCOCC5)o4)cccc32)CC1 [Compound 312] |
| < 200 | CCOC(=O)C1CCCN(CCCN2c3ccccc3Sc3c(-c4cc(=O)cc(N5CCOCC5)o4)cccc32)C1 (stereo not shown) [Compound 315] |
| < 200 | CC1(C)OCC(CNCCCN2c3ccccc3Sc3c(-c4cc(=O)cc(N5CCOCC5)o4)cccc32)O1 (stereo not shown) [Compound 321] |
| < 200 | O=c1cc(-c2cccc3c2Sc2ccccc2N3CCCNC(CO)(CO)CO)oc(N2CCOCC2)c1 [Compound 322] |

| IC50 [nM] | Compound |
| --- | --- |
| < 200 | O=c1cc(-c2cccc3c2Sc2ccccc2N3CCCNCC2CCCCCC2O)oc(N2CCOCC2)c1 (stereo not shown) [Compound 326] |
| < 200 | O=c1cc(-c2cccc3c2Sc2ccccc2N3CCCN(CCO)CCO)oc(N2CCOCC2)c1 [Compound 327] |
| < 200 | O=c1cc(-c2cccc3c2Sc2ccccc2N3CCCNCC2CCCCC2O)oc(N2CCOCC2)c1 (stereo not shown) [Compound 328] |
| < 200 | O=c1cc(-c2cccc3c2Sc2ccccc2N3CCCNc2nc(-c3ccccc3)ns2)oc(N2CCOCC2)c1 [Compound 330] |
| < 200 | CN1CCCN(CCCN2c3ccccc3Sc3c(-c4cc(=O)cc(N5CCOCC5)o4)cccc32)CC1 [Compound 331] |
| < 200 | CC(C)(C)OC(=O)N1CCCN(CCCN2c3ccccc3Sc3c(-c4cc(=O)cc(N5CCOCC5)o4)cccc32)CC1 [Compound 333] |
| < 200 | O=C(CCCCC1SC[C@@H]2NC(=O)N[C@H]12)NCCCCCC(=O)NCCNCCCN1c2ccccc2Sc2c(-c3cc(=O)cc(N4CCOCC4)o3)cccc21 (stereo partly shown) [Compound 336] |
| < 200 | CC(=O)N1CCN(CC(=O)Nc2ccc3c(c2)Cc2cccc(-c4cc(=O)cc(N5CCOCC5)o4)c2S3)CC1 [Compound 338] |
| < 200 | COCCN1CCN(CC(=O)Nc2ccc3c(c2)Cc2cccc(-c4cc(=O)cc(N5CCOCC5)o4)c2S3)CC1 [Compound 339] |
| < 200 | O=C(CN1CCN(CCOCCO)CC1)Nc1ccc2c(c1)Cc1cccc(-c3cc(=O)cc(N4CCOCC4)o3)c1S2 [Compound 340] |
| < 200 | CC(C)N1CCN(CC(=O)Nc2ccc3c(c2)Cc2cccc(-c4cc(=O)cc(N5CCOCC5)o4)c2S3)CC1 [Compound 341] |
| < 200 | CCN1CCN(CC(=O)Nc2ccc3c(c2)Cc2cccc(-c4cc(=O)cc(N5CCOCC5)o4)c2S3)CC1 [Compound 342] |
| < 200 | O=C(CN1CCN(c2ccccn2)CC1)Nc1ccc2c(c1)Cc1cccc(-c3cc(=O)cc(N4CCOCC4)o3)c1S2 [Compound 343] |
| < 200 | O=C(CN1CCN(c2ccc(F)cc2)CC1)Nc1ccc2c(c1)Cc1cccc(-c3cc(=O)cc(N4CCOCC4)o3)c1S2 [Compound 344] |
| < 200 | O=C(CN1CCN(c2ncccn2)CC1)Nc1ccc2c(c1)Cc1cccc(-c3cc(=O)cc(N4CCOCC4)o3)c1S2 [Compound 345] |
| < 200 | CC(C)NC(=O)CN1CCN(CC(=O)Nc2ccc3c(c2)Cc2cccc(-c4cc(=O)cc(N5CCOCC5)o4)c2S3)CC1 [Compound 346] |
| < 200 | CN(C)CCN1CCN(CC(=O)Nc2ccc3c(c2)Cc2cccc(-c4cc(=O)cc(N5CCOCC5)o4)c2S3)CC1 [Compound 347] |
| < 200 | O=C(CN1CCN(CCO)CC1)Nc1ccc2c(c1)Cc1cccc(-c3cc(=O)cc(N4CCOCC4)o3)c1S2 [Compound 348] |

Reference: patent US7429660B2, “ATM inhibitors” (Kudos Pharmaceuticals Limited, priority 2003, dated 2008)
